Test results from patent US11912703B2, “6-azaindole compounds” (BRISTOL-MYERS SQUIBB COMPANY, priority 2017, dated 2024).
Like-named read-outs stand apart in the source and are kept apart here.

What was measured:
[1] = molecular target: human TLR8 (Homo sapiens (Human), UniProt Q9NR97); assay: TLR8 inhibition reporter assay (HEK-Blue SEAP);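 also: SEAP driven by IFN-β minimal promoter with five NF-κB and AP-1 sites, compounds tested 0.05 nM to 50 µM, 22 h incubation, inhibition relative to agonist plus DMSO wells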
[2] = molecular target: human TLR7 (Homo sapiens (Human), UniProt Q9NYK1); assay: TLR7 inhibition reporter assay (HEK-Blue SEAP); format: cell-based; details: HEK-Blue cells overexpressing human TLR7, gardiquimod 7.5 μM stimulation
[3] = molecular target: human TLR9 (Homo sapiens (Human), UniProt Q9NR96); assay: TLR9 inhibition reporter assay (HEK-Blue SEAP);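 also: SEAP driven by IFN-β minimal promoter carrying five NF-κB and AP-1 sites, 22 h at 37 °C, compounds 0.05 nM–50 µM, inhibition scaled between agonist-plus-DMSO and reference-inhibitor wells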
[4] = read-out: TLR8 IC50; HEK-Blue cells overexpressing human TLR8, R848 15.9 μM stimulation, SEAP reporter
[5] = read-out: TLR9 IC50; HEK-Blue cells overexpressing human TLR9, ODN2006 5 nM stimulation, SEAP reporter
[6] = read-out: TLR8 IC50; HEK-Blue cells overexpressing human TLR8; R848 15.9 μM stimulation; SEAP reporter
[7] = read-out: TLR9 IC50; HEK-Blue cells overexpressing human TLR9; ODN2006 5 nM stimulation; SEAP reporter

Sequence of human TLR8 (Q9NR97 27-1041): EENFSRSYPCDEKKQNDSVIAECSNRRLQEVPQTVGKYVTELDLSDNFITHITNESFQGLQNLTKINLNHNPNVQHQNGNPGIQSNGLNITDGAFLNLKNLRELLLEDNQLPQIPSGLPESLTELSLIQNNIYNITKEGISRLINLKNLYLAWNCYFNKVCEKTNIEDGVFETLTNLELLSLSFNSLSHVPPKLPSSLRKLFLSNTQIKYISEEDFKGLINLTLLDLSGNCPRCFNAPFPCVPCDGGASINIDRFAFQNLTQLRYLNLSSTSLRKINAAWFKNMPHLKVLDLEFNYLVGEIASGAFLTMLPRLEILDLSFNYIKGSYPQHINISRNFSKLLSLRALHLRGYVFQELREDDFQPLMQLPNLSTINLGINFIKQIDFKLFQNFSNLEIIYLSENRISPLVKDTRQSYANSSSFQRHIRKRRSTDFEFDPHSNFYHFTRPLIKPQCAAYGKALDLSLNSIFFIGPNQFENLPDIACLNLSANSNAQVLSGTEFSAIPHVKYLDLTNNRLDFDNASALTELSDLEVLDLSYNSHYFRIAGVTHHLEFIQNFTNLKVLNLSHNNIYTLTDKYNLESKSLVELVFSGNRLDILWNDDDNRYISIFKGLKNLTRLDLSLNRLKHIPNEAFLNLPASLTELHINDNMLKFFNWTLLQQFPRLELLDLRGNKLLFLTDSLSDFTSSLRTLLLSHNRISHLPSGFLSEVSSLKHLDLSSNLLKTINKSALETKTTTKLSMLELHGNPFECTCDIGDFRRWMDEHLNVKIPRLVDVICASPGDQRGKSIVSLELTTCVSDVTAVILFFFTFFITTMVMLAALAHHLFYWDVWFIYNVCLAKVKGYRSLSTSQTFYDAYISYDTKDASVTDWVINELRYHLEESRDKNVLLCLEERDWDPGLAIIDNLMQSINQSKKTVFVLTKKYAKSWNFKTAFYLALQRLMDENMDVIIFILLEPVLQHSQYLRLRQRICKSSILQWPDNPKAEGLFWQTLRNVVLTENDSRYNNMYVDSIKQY
Sequence of human TLR7 (Q9NYK1 27-1049): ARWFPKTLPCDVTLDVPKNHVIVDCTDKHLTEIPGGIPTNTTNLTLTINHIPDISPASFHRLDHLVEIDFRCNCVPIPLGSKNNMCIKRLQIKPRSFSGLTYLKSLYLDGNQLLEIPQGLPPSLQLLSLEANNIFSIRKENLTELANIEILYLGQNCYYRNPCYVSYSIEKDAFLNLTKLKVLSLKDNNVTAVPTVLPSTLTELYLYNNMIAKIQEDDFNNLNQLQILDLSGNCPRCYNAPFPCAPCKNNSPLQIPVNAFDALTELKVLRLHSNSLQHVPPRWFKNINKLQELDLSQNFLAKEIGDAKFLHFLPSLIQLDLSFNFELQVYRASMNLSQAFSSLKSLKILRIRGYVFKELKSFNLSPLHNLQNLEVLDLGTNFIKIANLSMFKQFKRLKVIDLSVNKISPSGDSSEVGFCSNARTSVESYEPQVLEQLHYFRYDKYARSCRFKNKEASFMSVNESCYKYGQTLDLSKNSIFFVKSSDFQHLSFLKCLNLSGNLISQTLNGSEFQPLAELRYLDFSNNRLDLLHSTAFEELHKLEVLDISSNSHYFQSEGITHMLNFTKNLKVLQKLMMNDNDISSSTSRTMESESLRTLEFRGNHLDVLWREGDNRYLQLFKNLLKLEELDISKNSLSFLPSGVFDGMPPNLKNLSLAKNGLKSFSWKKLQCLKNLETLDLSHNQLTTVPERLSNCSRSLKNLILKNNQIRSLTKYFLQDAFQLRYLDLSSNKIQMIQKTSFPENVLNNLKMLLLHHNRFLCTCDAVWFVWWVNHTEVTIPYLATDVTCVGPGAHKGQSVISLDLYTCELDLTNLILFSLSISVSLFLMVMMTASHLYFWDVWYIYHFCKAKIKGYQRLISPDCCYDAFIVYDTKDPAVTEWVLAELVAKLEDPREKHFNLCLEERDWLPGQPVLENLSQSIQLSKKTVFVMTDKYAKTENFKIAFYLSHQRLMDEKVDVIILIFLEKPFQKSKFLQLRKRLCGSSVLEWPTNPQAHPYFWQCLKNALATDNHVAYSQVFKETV
Sequence of human TLR9 (Q9NR96 26-1032): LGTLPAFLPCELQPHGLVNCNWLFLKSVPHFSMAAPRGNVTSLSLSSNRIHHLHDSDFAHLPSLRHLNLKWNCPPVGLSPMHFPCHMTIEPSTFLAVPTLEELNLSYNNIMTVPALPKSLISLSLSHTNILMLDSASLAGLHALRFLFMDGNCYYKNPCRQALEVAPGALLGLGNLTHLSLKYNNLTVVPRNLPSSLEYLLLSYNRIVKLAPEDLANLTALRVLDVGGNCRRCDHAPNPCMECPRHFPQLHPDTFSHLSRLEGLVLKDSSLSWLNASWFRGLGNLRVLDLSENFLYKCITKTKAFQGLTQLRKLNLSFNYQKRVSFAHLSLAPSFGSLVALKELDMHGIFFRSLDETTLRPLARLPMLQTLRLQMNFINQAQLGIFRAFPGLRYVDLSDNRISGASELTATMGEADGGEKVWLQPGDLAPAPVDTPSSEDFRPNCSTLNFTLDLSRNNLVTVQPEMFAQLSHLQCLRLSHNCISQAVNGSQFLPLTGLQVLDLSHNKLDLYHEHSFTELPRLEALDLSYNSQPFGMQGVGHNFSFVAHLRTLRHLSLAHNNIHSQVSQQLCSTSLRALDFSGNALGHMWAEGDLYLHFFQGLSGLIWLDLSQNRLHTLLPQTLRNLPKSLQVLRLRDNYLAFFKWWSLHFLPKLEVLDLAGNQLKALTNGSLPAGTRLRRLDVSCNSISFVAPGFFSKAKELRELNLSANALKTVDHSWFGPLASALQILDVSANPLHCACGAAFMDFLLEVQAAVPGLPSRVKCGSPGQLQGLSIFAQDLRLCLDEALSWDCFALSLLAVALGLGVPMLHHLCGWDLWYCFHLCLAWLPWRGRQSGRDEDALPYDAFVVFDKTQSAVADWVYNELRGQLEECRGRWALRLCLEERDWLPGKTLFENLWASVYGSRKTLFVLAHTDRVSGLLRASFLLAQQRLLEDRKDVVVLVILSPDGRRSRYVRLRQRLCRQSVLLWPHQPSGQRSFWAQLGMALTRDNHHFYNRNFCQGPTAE

IC50 [1, 4] [nM]	IC50 [2] [nM]	IC50 [3, 5] [nM]	IC50 [1, 6] [nM]	IC50 [3, 7] [nM]	Structure (SMILES)
14	3.3	750			Cc1c(-c2[nH]c3cnc(C4CCC(NC5COC5)CC4)cc3c2C(C)C)cn2ncnc2c1C (centres unmarked) [Example 346]
4.3	5.4	1060			COc1cc(-c2[nH]c3cnc(N4CCC(NCC(=O)N(C)C)CC4)cc3c2C(C)C)cn2ncnc12 [Example 333]
5.3	3.4	6060			CNC(=O)CN1CCC(c2ncc3[nH]c(-c4cc(C)nc(C)c4)c(C(C)C)c3c2F)CC1 [Example 150]
1.4	8.6	294			COc1cc(-c2[nH]c3cnc(C4CCC(N5CC6(COC6)C5)C4)cc3c2C(C)C)cn2ncnc12 (centres unmarked) [Example 118]
	2.7		2.4	1110	COc1cc(-c2[nH]c3cnc(C4CCC(NC5COC5)CC4)c(F)c3c2C(C)C)cn2ncnc12 (centres unmarked) [Example 223]
3.2	8.2	2530			COCCN1CCN(c2ncc3[nH]c(-c4cc(OC)c5ncnn5c4)c(C(C)C)c3c2C)CC1 [Example 126]
43	16	36400			Cc1c(N2CCC(N3CCS(=O)(=O)CC3)CC2)ncc2[nH]c(-c3cc(C)c4ncnn4c3)c(C(C)C)c12 [Example 281]
35	42	648			COc1cc(-c2[nH]c3cnc(C4CCC(NC5COC5)C4)cc3c2C(C)C)cn2ncnc12 (centres unmarked) [Example 274]
2.6	13	733	2.6	733	Cc1c(-c2[nH]c3cnc(C4CCC(NCC(C)(C)C)CC4)c(F)c3c2C(C)C)cn2ncnc2c1C (centres unmarked) [Example 234]
0.9	1.4	4050			COc1cc(-c2[nH]c3cnc(N4CCN(C5CCC5)CC4)c(F)c3c2C(C)C)cn2ncnc12 [Example 391]
21	6	846			Cc1c(-c2[nH]c3cnc(C4CCC(NC(C)C)CC4)cc3c2C(C)C)cn2ncnc2c1C (centres unmarked) [Example 318]
16	16	1410			COc1cc(-c2[nH]c3cnc(N4CC5(C4)CN(C4CCN(C(C)C)CC4)C5)c(F)c3c2C(C)C)cn2ncnc12 [Example 377]
0.83	0.76	1010			Cc1c(-c2[nH]c3cnc(C4CCC(N5CC6(COC6)C5)CC4)c(F)c3c2C(C)C)cn2ncnc2c1C (centres unmarked) [Example 50]
3	2	1760			COc1cc(-c2[nH]c3cnc(C4CCN(CC(N)=O)CC4)c(F)c3c2C(C)C)cn2ncnc12 [Example 19]
0.6	1	12700			Cc1cc(-c2[nH]c3cnc(N4CCC(NC5(C)COC5)CC4)c(F)c3c2C(C)C)cn2ncnc12 [Example 43]
	3.2		2.5	22000	Cc1c(-c2[nH]c3cnc(N4CCN(C5COC5)C[C@H]4C)c(F)c3c2C(C)C)cn2ncnc2c1C [Example 457]
3	1.5	517			COc1cc(-c2[nH]c3cnc(N4CCNCC4)c(C)c3c2C(C)C)cn2ncnc12 [Example 213, 6-(3-isopropyl-4-methyl-5-(piperazin-1-yl)-1H-pyrrolo [2,3-c]pyridin-2-yl)-8-methoxy-[1,2,4]triazolo[1,5-a]pyridine]
0.85	3	657			COc1cc(-c2[nH]c3cnc(N4CCC(NC(C)C)CC4)cc3c2C(C)C)cn2ncnc12 [Example 307]
30	3.9	790			COCCNC1CCC(c2cc3c(C(C)C)c(-c4cn5ncnc5c(C)c4C)[nH]c3cn2)CC1 (centres unmarked) [Example 347]
1.7	0.61	1660			Cc1cc(-c2[nH]c3cnc(C4CCC(N5CCC5)CC4)c(F)c3c2C(C)C)cn2ncnc12 (centres unmarked) [Example 109]
4.4	4	1220			COc1cc(-c2[nH]c3cnc(N4CCN(C(=O)CN(C)C)CC4)c(C)c3c2C(C)C)cn2ncnc12 [Example 154]
2.2	19	6010			Cc1c(-c2[nH]c3cnc(N4CCN(C5CCOCC5)CC4)c(C)c3c2C(C)C)cn2ncnc2c1C [Example 418]
3.4	6	5110			COc1cc(-c2[nH]c3cnc(N4CC5(CN(C)C5)C4)c(F)c3c2C(C)C)cn2ncnc12 [Example 378]
16	6.4	5530			CNCC(=O)N1CCC(c2ncc3[nH]c(-c4cc(C)c5ncnn5c4)c(C(C)C)c3c2F)CC1 [Example 39]

IC50 [1, 4] [nM]	IC50 [2] [nM]	IC50 [3, 5] [nM]	IC50 [1, 6] [nM]	IC50 [3, 7] [nM]	Structure (SMILES)
6.8	26	> 50000			COc1cc(-c2[nH]c3cnc(N4CCN(C5CCCOC5)CC4)c(F)c3c2C(C)C)cn2ncnc12 (single isomer, unassigned) [Example 386]
5.9	2.7	759			Cc1c(-c2[nH]c3cnc(C4CCC(NC5COC5)CC4)c(C)c3c2C(C)C)cn2ncnc2c1C (centres unmarked) [Example 121]
1.6	1.3	1860			COc1cc(-c2[nH]c3cnc(C4CCN(CC5(C)COC5)CC4)c(F)c3c2C(C)C)cn2ncnc12 [Example 17]
0.71	0.42	2290			Cc1c(N2CCC(NCC3(C)COC3)CC2)ncc2[nH]c(-c3cc(C)c4ncnn4c3)c(C(C)C)c12 [Example 170]
7.8	5.6	1480			CCCN1CC2(C1)CN(c1ncc3[nH]c(-c4cc(OC)c5ncnn5c4)c(C(C)C)c3c1F)C2 [Example 380]
31	26	1110			COc1cc(-c2[nH]c3cnc(C4CCC(NCC(C)(C)OC)C4)cc3c2C(C)C)cn2ncnc12 (centres unmarked) [Example 123]
0.55	0.55	4050			CCN(C)C1CCN(c2ncc3[nH]c(-c4cc(C)c5ncnn5c4)c(C(C)C)c3c2F)CC1 [Example 69]
171	37	> 50000			COc1cc(-c2[nH]c3cnc(N4CCN(CC(F)(F)F)C[C@H]4C)c(F)c3c2C(C)C)cn2ncnc12 [Example 449]
4.9	2.1	3620			Cc1cc(-c2[nH]c3cnc(C4CCN(C(=O)CN(C)C)CC4)c(F)c3c2C(C)C)cn2ncnc12 [Example 66]
23	60	692			Cc1c(-c2[nH]c3cnc(C4CCC(NCC(C)(C)C)CC4)c(C)c3c2C(C)C)cn2ncnc2c1C (centres unmarked) [Example 58]
5	4.9	1950			COc1cc(-c2[nH]c3cnc(C4CCC(N(C)C5COC5)CC4)c(F)c3c2C(C)C)cn2ncnc12 (centres unmarked) [Example 106]
12	16	> 50000			Cc1c(-c2[nH]c3cnc(N4CCN(C(=O)CN5CCOCC5)CC4)c(F)c3c2C(C)C)cn2ncnc2c1C [Example 421]
0.73	14	19800			Cc1c(-c2[nH]c3cnc(N4CCN(CC(=O)N(C)C)CC4)c(C)c3c2C(C)C)cn2ncnc2c1C [Example 352, 2-(4-(2-(7,8-dimethyl-[1,2,4]triazolo[1,5-a]pyridin-6-yl)-3-isopropyl-4-methyl-1H-pyrrolo[2,3-c]pyridin-5-yl)piperazin-1-yl)-N,N-dimethylacetamide]
61	16	12400			CCN1CC2(C1)CN(c1ncc3[nH]c(-c4cn5ncnc5c(C)c4C)c(C(C)C)c3c1F)C2 [Example 408]
28	12	677			CNCC(=O)NC1CCN(c2cc3c(C(C)C)c(-c4cc(OC)c5ncnn5c4)[nH]c3cn2)CC1 [Example 339]
0.49	0.5	14500			Cc1cc(-c2[nH]c3cnc(N4CCC(NC5COC5)CC4)c(F)c3c2C(C)C)cn2ncnc12 [Example 255]
1.9	2.2	2770			Cc1cc(-c2[nH]c3cnc(N4CCC(N(C)CC(=O)N(C)C)CC4)c(F)c3c2C(C)C)cn2ncnc12 [Example 45]
1.4	4.1	42100			COc1cc(-c2[nH]c3cnc(N4CCN(CC5(C)COC5)CC4)c(F)c3c2C(C)C)cn2ncnc12 [Example 385]
6.9	3.1	633			CNC(=O)CN1CCC(c2cc3c(C(C)C)c(-c4cn5ncnc5c(C)c4C)[nH]c3cn2)CC1 [Example 26]
11	3.2	1580			COc1cc(-c2[nH]c3cnc(C4CCNCC4)c(F)c3c2C(C)C)cn2ncnc12 [Example 3, 6-(4-fluoro-3-isopropyl-5-(piperidin-4-yl)-1H-pyrrolo[2,3-c]pyridin-2-yl)-8-methoxy-[1,2,4]triazolo[1,5-a]pyridine]
	0.4		0.62	679	COc1cc(-c2[nH]c3cnc(C4CCC(NC5COC5)CC4)c(F)c3c2C(C)C)cn2ncnc12 (centres unmarked) [Example 224]
6.9	1.4	134			COc1cc(-c2[nH]c3cnc(C4CCN(C(C)C)CC4)c(C)c3c2C(C)C)cn2ncnc12 [Example 33]
14	8.3	23500			Cc1c(N2CCC(N3CCNC(=O)C3)CC2)ncc2[nH]c(-c3cc(C)c4ncnn4c3)c(C(C)C)c12 [Example 284]
